Laboratory results published in US7094796B2, “Coupling product between tryptamine and an alpha-amino acid, process for its preparation as well as its application in the neurocosmetic field” (Exsymol S.A.M., priority 2002, dated 2006).

Tests used:
PC 12 cells [1] = test: Test 2: slowdown of the neurodegeneration process of PC 12 submitted to a deprivation of serum (LDH release); type: cell-based, murine; conditions: serum deprivation of nine days, average of six measures
From the text: (§1) The cell model chosen by the applicant in all its in vitro experimentations was a pheochromocytomal cell line with murine origin, called “PC 12” and commonly accepted for neurobiological and neurochemical studies on nervous cells (Greene L. A. and al., Proc. Natl. Acad. Sci. USA (1976), vol.73, pp.2424–2428), in particular on peripheral neurones which innervate skin (Keilbaugh S. A., Biochem. Pharm. (1997), vol.53, pp.1485–1492).
(§2) The PC 12 line was used after differentiation according to a method described in the literature (Greene L. A. et al. in Culturing Nerve Cells (1991), MIT Press, Cambridge, Mass., pp.207–225).
Test 2: anti-aging effect of the alpha-L-glutamyltryptamine, L-methionyltryptamine and L-tryptophantryptamine with the slowdown of the neurodegeneration process of PC 12 submitted to a deprivation of serum.
A deprivation of serum is applied to PC 12 cells in order to imitate the aging effects. The neurodegeneration process is followed, in the absence then in the presence of active ingredient, successively the alpha-L-glutamyltryptamine (Glu-Tryp), L-methionyltryptamine (Met-Tryp) and L-tryptophantryptamine (Trp-Tryp), by a kinetic measure of the release in the culture medium of lactico-dehydrogenase enzyme (LDH).
The results are expressed in relative survival rate given by the LDH activity ratio according to the following equation: […]
The values listed in the tables hereafter are average values obtained from six measures after a serum deprivation of nine days.

PC 12 cells [2] = test: Test 1: cytoprotecting effect on PC 12 cells submitted to a cytotoxic UV-B stress (LDH activity in culture medium); type: cell-based, murine; conditions: UV-B 285 nm, 500 mJ/cm^2, average of six measures
From the text: as §1, §2
Test 1: cytoprotecting effect of the alpha-L-glutamyltryptamine, L-methionyltryptamine and L-tryptophantryptamine on PC 12 cells submitted to a UV-B stress. Comparison with a reference antioxidant. A cytotoxic UV-B stress is applied on the nervous cell model (285 nm±5; 500 mJ/cm^2), in the absence then in the presence of active ingredient, successively the alpha-L-glutamyltryptamine (Glu-Tryp), L-methionyltryptamine (Met-Tryp) and L-tryptophantryptamine (Trp-Tryp).
The cell death is then evaluated by the measure of lactico-dehydrogenase activity (LDH) in the culture medium. This activity is proportional to the cell lysis which follows the cell death.
The results are expressed in % of protection and are given by the ratio of LDH activity according to the following equation: […]
The results are compared to the ones obtained with a reference antioxidant which is vitamin E (vit.E).
Validity of the test is checked by the measure of LDH activity in the culture medium of non stressed cells (negative check). Values listed in the tables hereafter are average values obtained from six measures.

[3] = tested on: immune monocyte cells, the THP-1 line; test: Test 4: stimulation of the neuro immuno-cutaneous system (IL-1β produced by THP-1 monocytes given supernatants of treated PC 12 cells); type: cell-based; conditions: supernatant added to THP-1, non treated supernatant control 40
Experimental: Test 4: stimulation of the neuro immuno-cutaneous system with the alpha-L-glutamyltryptamine, L-methionyltryptamine or L-tryptophantryptamine.
PC 12 cells are differentiated according to a special protocol to avoid artefacts. After a brief deprivation of growth and differentiation factors, PC 12 are incubated in different concentrations of pseudodipeptides, successively the alpha-L-glutamyltryptamine (Glu-Tryp), L-methionyltryptamine (Met-Tryp) and L-tryptophantryptamine (Trp-Tryp).
After a five days-incubation, the cellular supernatants containing neuromediators and miscellaneous secretions are sampled then introduced in the culture of immune monocyte cells, the THP-1 line.
The effect on the neuro immuno-cutaneous system is observed by measuring the rate of IL-1β interleukines produced by the monocyte cells in response to the addition of supernatants coming from the culture of PC 12 cells.
The results are compared to two controls: the first one with immune cells without supernatant, the second one containing immune cells with supernatant but non treated.

PC 12 cells [4] = test: Test 3: anti-inflammatory effect on PC 12 cells submitted to a UV-B pro-inflammatory stress (IL-6 production); type: cell-based, murine; conditions: UV-B 285 nm, 150 mJ/cm^2, non treated irradiated control 400, non irradiated control 0
From the text: as §1, §2
Test 3: anti-inflammatory effect of the alpha-L-glutamyltryptamine, L-methionyltryptamine and L-tryptophantryptamine on PC 12 cells submitted to a pro-inflammatory stress. Comparison with two controls (PC 12): the first one is non stressed, the second one is stressed but non treated
A UV-B pro-inflammatory stress is applied on PC 12 cells (285 nm±5; 150 mJ/cm^2), in the absence then in the presence of active ingredient, successively the alpha-L-glutamyltryptamine (Glu-Tryp), L-methionyltryptamine (Met-Tryp) and L-tryptophantryptamine (Trp-Tryp).
The neurogenic inflammatory response is evaluated by the measure of the rate of pro-inflammatory interleukine-6 (IL-6) which are produced by the PC 12 cells.

[5] = 0.05 mM on PC 12, five days-incubation
[6] = 0.1 mM on PC 12, five days-incubation

Row | Compound | improvement of the survival time (%) (PC 12 cells [1]; 0.1 mM) | improvement of the survival time (%) (PC 12 cells [1]; 0.48 mM) | improvement of the survival time (%) (PC 12 cells [1]; 0.85 mM) | % of protection (PC 12 cells [2]; 0.05 mM) [%] | % of protection (PC 12 cells [2]; 0.1 mM) [%] | % of protection (PC 12 cells [2]; 0.48 mM) [%] | % of protection (PC 12 cells [2]; 0.85 mM) [%] | % of protection (PC 12 cells [2]; 1.91 mM) [%] | produced IL-1β rate [3, 5] [pg/mL] | produced IL-1β rate [3, 6] [pg/mL] | produced IL-1β rate ([3]; 0.48 mM on PC 12, five days-incubation) [pg/mL] | produced IL-6 rate (PC 12 cells [4]; 0.1 mM) [pg/mL] | produced IL-6 rate (PC 12 cells [4]; 0.48 mM) [pg/mL] | produced IL-6 rate (PC 12 cells [4]; 0.85 mM) [pg/mL] | improvement of the survival time (%) (PC 12 cells [1]; 0.45 mM) | % of protection (PC 12 cells [2]; 0.45 mM) [%] | % of protection (PC 12 cells [2]; 1.80 mM) [%] | produced IL-1β rate ([3]; 0.45 mM on PC 12, five days-incubation) [pg/mL] | produced IL-6 rate (PC 12 cells [4]; 0.45 mM) [pg/mL] | % of protection (PC 12 cells [2]; 2 mM) [%]
1 | CSCC[C@H](N)C(=O)NCCc1c[nH]c2ccccc12 [Met-Tryp, L-methionyltryptamine] | +12% | +15% | +28% | 20 | 32 | 42 | 53 | 65 | 42 | 55 | 85 | 290 | 210 | 85 | – | – | – | – | – | –
2 | N[C@@H](Cc1c[nH]c2ccccc12)C(=O)NCCc1c[nH]c2ccccc12 [Trp-Tryp, L-tryptophantryptamine] | +17% | – | +30% | 22 | 35 | – | 58 | – | 44 | 60 | – | 305 | – | 100 | +20% | 45 | 66 | 92 | 210 | –
3 | vitamin E [Vit. E, reference compound] | – | – | – | – | – | – | – | – | – | – | – | – | – | – | – | – | – | – | – | 34
